Source: ChEMBL document CHEMBL3745645, “Synthesis, in vitro antitumor activity, dihydrofolate reductase inhibition, DNA intercalation and structure-activity relationship studies of 1,3,5-triazine analogues” (Bioorg Med Chem Lett, 2016)
Active and inactive are the calls of the source. The rule behind the calls is not given here.

What was measured:
Type in all cases: functional
[1] = test system: CAKI-1; assay: Cytotoxicity against human Caki1 cells at 10 uM after 48 hrs by SRB assay
[2] = Cytotoxicity against human RXF393 cells at 10 uM after 48 hrs by SRB assay; conditions: RXF 393, 48 h, read-out: GI
[3] = test system: SN12C; assay: Cytotoxicity against human SN12C cells at 10 uM after 48 hrs by SRB assay; conditions: read-out: GI
[4] = test system: TK-10; assay: Cytotoxicity against human TK10 cells at 10 uM after 48 hrs by SRB assay
[5] = Cytotoxicity against human UO31 cells at 10 uM after 48 hrs by SRB assay; conditions: UO-31, 48 h, read-out: GI
[6] = Cytotoxicity against human DU145 cells at 10 uM after 48 hrs by SRB assay; conditions: DU-145, 48 h, read-out: GI
[7] = test system: MCF7; assay: Cytotoxicity against human MCF7 cells at 10 uM after 48 hrs by SRB assay; conditions: MCF7, 48 h, read-out: GI
[8] = test system: MDA-MB-231; assay: Cytotoxicity against human MDA-MB-231 cells at 10 uM after 48 hrs by SRB assay; conditions: MDA-MB-231, 48 h, read-out: GI
[9] = test system: Hs-578T; assay: Cytotoxicity against human Hs 578T cells at 10 uM after 48 hrs by SRB assay
[10] = test system: BT-549; assay: Cytotoxicity against human BT549 cells at 10 uM after 48 hrs by SRB assay
[11] = test system: T47D; assay: Cytotoxicity against human T47D cells at 10 uM after 48 hrs by SRB assay; conditions: read-out: GI
[12] = test system: MDA-MB-468; assay: Cytotoxicity against human MDA-MB-468 cells at 10 uM after 48 hrs by SRB assay; conditions: MDA-MB-468, 48 h, read-out: GI
[13] = test system: CCRF-CEM; assay: Cytotoxicity against human CCRF-CEM cells at 10 uM after 48 hrs by SRB assay; conditions: read-out: GI
[14] = test system: HL-60(TB); assay: Cytotoxicity against human HL-60(TB) cells at 10 uM after 48 hrs by SRB assay
[15] = test system: K562; assay: Cytotoxicity against human K562 cells at 10 uM after 48 hrs by SRB assay; conditions: K562, 48 h, read-out: GI
[16] = Cytotoxicity against human RPMI8226 cells at 10 uM after 48 hrs by SRB assay; conditions: RPMI-8226, 48 h, read-out: GI
[17] = test system: SR; assay: Cytotoxicity against human SR cells at 10 uM after 48 hrs by SRB assay; conditions: read-out: GI
[18] = test system: A549; assay: Cytotoxicity against human A549 cells at 10 uM after 48 hrs by SRB assay; conditions: A549, 48 h, read-out: GI
[19] = Cytotoxicity against human HOP62 cells at 10 uM after 48 hrs by SRB assay; conditions: HOP-62, 48 h, read-out: GI
[20] = Cytotoxicity against human HOP92 cells at 10 uM after 48 hrs by SRB assay; conditions: HOP-92, 48 h, read-out: GI
[21] = test system: NCI-H226; assay: Cytotoxicity against human NCI-H226 cells at 10 uM after 48 hrs by SRB assay; conditions: NCI-H226, 48 h, read-out: GI
[22] = test system: NCI-H322M; assay: Cytotoxicity against human NCI-H322M cells at 10 uM after 48 hrs by SRB assay; conditions: read-out: GI
[23] = test system: NCI-H460; assay: Cytotoxicity against human NCI-H460 cells at 10 uM after 48 hrs by SRB assay; conditions: NCI-H460, 48 h, read-out: GI
[24] = test system: NCI-H522; assay: Cytotoxicity against human NCI-H522 cells at 10 uM after 48 hrs by SRB assay; conditions: NCI-H522, 48 h, read-out: GI
[25] = Cytotoxicity against human COLO205 cells at 10 uM after 48 hrs by SRB assay; conditions: COLO 205, 48 h, read-out: GI
[26] = test system: HCC 2998; assay: Cytotoxicity against human HCC2998 cells at 10 uM after 48 hrs by SRB assay
[27] = Cytotoxicity against human HCT116 cells at 10 uM after 48 hrs by SRB assay; conditions: HCT-116, 48 h, read-out: GI
[28] = test system: HCT-15; assay: Cytotoxicity against human HCT15 cells at 10 uM after 48 hrs by SRB assay
[29] = test system: HT-29; assay: Cytotoxicity against human HT-29 cells at 10 uM after 48 hrs by SRB assay; conditions: HT-29, 48 h, read-out: GI
[30] = test system: KM12; assay: Cytotoxicity against human KM12 cells at 10 uM after 48 hrs by SRB assay; conditions: KM12, 48 h, read-out: GI
[31] = test system: SW-620; assay: Cytotoxicity against human SW620 cells at 10 uM after 48 hrs by SRB assay
[32] = Cytotoxicity against human SF268 cells at 10 uM after 48 hrs by SRB assay; conditions: SF-268, 48 h, read-out: GI
[33] = Cytotoxicity against human SF295 cells at 10 uM after 48 hrs by SRB assay; conditions: SF-295, 48 h, read-out: GI
[34] = Cytotoxicity against human SF539 cells at 10 uM after 48 hrs by SRB assay; conditions: SF-539, 48 h, read-out: GI
[35] = test system: SNB-19; assay: Cytotoxicity against human SNB19 cells at 10 uM after 48 hrs by SRB assay
[36] = test system: SNB-75; assay: Cytotoxicity against human SNB75 cells at 10 uM after 48 hrs by SRB assay
[37] = test system: U-251; assay: Cytotoxicity against human U251 cells at 10 uM after 48 hrs by SRB assay; conditions: U-251, 48 h, read-out: GI
[38] = Cytotoxicity against human LOXIMVI cells at 10 uM after 48 hrs by SRB assay; conditions: LOX IMVI, read-out: GI
[39] = test system: Malme-3M; assay: Cytotoxicity against human MALME-3M cells at 10 uM after 48 hrs by SRB assay
[40] = test system: M14; assay: Cytotoxicity against human M14 cells at 10 uM after 48 hrs by SRB assay; conditions: M14, 48 h, read-out: GI
[41] = test system: MDA-MB-435; assay: Cytotoxicity against human MDA-MB-435 cells at 10 uM after 48 hrs by SRB assay; conditions: MDA-MB-435, 48 h, read-out: GI
[42] = test system: SK-MEL-2; assay: Cytotoxicity against human SK-MEL-2 cells at 10 uM after 48 hrs by SRB assay
[43] = test system: SK-MEL-28; assay: Cytotoxicity against human SK-MEL-28 cells at 10 uM after 48 hrs by SRB assay
[44] = test system: SK-MEL-5; assay: Cytotoxicity against human SK-MEL-5 cells at 10 uM after 48 hrs by SRB assay; conditions: SK-MEL-5, 48 h, read-out: GI
[45] = Cytotoxicity against human UACC257 cells at 10 uM after 48 hrs by SRB assay; conditions: UACC-257, 48 h, read-out: GI
[46] = Cytotoxicity against human IGROV1 cells at 10 uM after 48 hrs by SRB assay; conditions: IGROV-1, 48 h, read-out: GI
[47] = Cytotoxicity against human OVCAR3 cells at 10 uM after 48 hrs by SRB assay; conditions: OVCAR-3, 48 h, read-out: GI
[48] = Cytotoxicity against human OVCAR4 cells at 10 uM after 48 hrs by SRB assay; conditions: OVCAR-4, 48 h, read-out: GI
[49] = test system: OVCAR-5; assay: Cytotoxicity against human OVCAR5 cells at 10 uM after 48 hrs by SRB assay
[50] = Cytotoxicity against human OVCAR8 cells at 10 uM after 48 hrs by SRB assay; conditions: OVCAR-8, 48 h, read-out: GI
[51] = Cytotoxicity against human NCI-ADR-RES cells at 10 uM after 48 hrs by SRB assay; conditions: read-out: GI
[52] = test system: SK-OV-3; assay: Cytotoxicity against human SKOV3 cells at 10 uM after 48 hrs by SRB assay
[53] = test system: 786-0; assay: Cytotoxicity against human 786-0 cells at 10 uM after 48 hrs by SRB assay; conditions: 786-0, 48 h, read-out: GI
[54] = test system: A498; assay: Cytotoxicity against human A498 cells at 10 uM after 48 hrs by SRB assay; conditions: A498, 48 h, read-out: GI
[55] = test system: ACHN; assay: Cytotoxicity against human ACHN cells at 10 uM after 48 hrs by SRB assay; conditions: read-out: GI

## Cc1nc2cc(Nc3nc(NCCO)nc(Nc4ccc(F)cc4)n3)ccc2n1Cc1ccccc1
[1]
  growth inhibition (GI): inactive
[2]
  inhibition of growth at 10 µM: 9.82%
[3]
  inhibition of growth at 10 µM: 8.89%
[4]
  growth inhibition (GI): inactive
[5]
  inhibition of growth at 10 µM: 21.2%
[6]
  inhibition of growth at 10 µM: 11.5%
[7]
  inhibition of growth at 10 µM: 8.72%
[8]
  inhibition of growth at 10 µM: 19.7%
[9]
  growth inhibition (GI): inactive
[10]
  growth inhibition (GI): inactive
[11]
  inhibition of growth at 10 µM: 34.7%
[12]
  inhibition of growth at 10 µM: 0.84%
[13]
  inhibition of growth at 10 µM: 98.1%
[14]
  growth inhibition (GI): Active
[15]
  inhibition of growth at 10 µM: 80.8%
[16]
  inhibition of growth at 10 µM: 85.8%
[17]
  inhibition of growth at 10 µM: 85.1%
[18]
  inhibition of growth at 10 µM: 25.9%
[19]
  inhibition of growth at 10 µM: 6.05%
[20]
  inhibition of growth at 10 µM: 50.1%
[21]
  inhibition of growth at 10 µM: 8.37%
[22]
  inhibition of growth at 10 µM: 1.09%
[23]
  inhibition of growth at 10 µM: 16.5%
[24]
  inhibition of growth at 10 µM: 14.3%
[25]
  inhibition of growth at 10 µM: 5.46%
[26]
  growth inhibition (GI): inactive
[27]
  inhibition of growth at 10 µM: 23.4%
[28]
  growth inhibition (GI): inactive
[29]
  inhibition of growth at 10 µM: 28.1%
[30]
  inhibition of growth at 10 µM: 19.7%
[31]
  growth inhibition (GI): inactive
[32]
  inhibition of growth at 10 µM: 7.77%
[33]
  inhibition of growth at 10 µM: 13.6%
[34]
  inhibition of growth at 10 µM: 5.61%
[35]
  growth inhibition (GI): inactive
[36]
  growth inhibition (GI): inactive
[37]
  inhibition of growth at 10 µM: 13.7%
[38]
  inhibition of growth at 10 µM: 18.1%
[39]
  growth inhibition (GI): inactive
[40]
  inhibition of growth at 10 µM: 6.95%
[41]
  inhibition of growth at 10 µM: 8.37%
[42]
  growth inhibition (GI): inactive
[43]
  growth inhibition (GI): inactive
[44]
  inhibition of growth at 10 µM: 19.7%
[45]
  inhibition of growth at 10 µM: 1.2%
[46]
  inhibition of growth at 10 µM: 11.1%
[47]
  inhibition of growth at 10 µM: 9.84%
[48]
  inhibition of growth at 10 µM: 4.73%
[49]
  growth inhibition (GI): inactive
[50]
  inhibition of growth at 10 µM: 20%
[51]
  inhibition of growth at 10 µM: 2.28%
[52]
  growth inhibition (GI): inactive
[53]
  inhibition of growth at 10 µM: 5.33%
[54]
  inhibition of growth at 10 µM: 33.8%
[55]
  inhibition of growth at 10 µM: 1.72%
